Test results reported in the OligoGym collection.
“And” between values parts separate entries of the source, which are not always exact repeats. Identical values can stand only once. After the bases stand the sugars from the 5' end (letter, count) and the backbone: PS all phosphorothioate, else s phosphorothioate and o phosphodiester by linkage. Methylation of C is not given here. k = constrained ethyl (cEt); d = 2'-deoxy (DNA)

target: MALAT1; conditions: ASO, A431, 0.005 µM

Sequence	target mRNA inhibition
TGCCATCTACTATTTC (sugars k3 d10 k3, PS)	19%
TGCCTACCGCACAGCT (sugars k3 d10 k3, PS)	19%
TGCGACTTGCTCCCAA (sugars k3 d10 k3, PS)	-13%
TGCGGCCCCCCAGTTG (sugars k3 d10 k3, PS)	-6%
TGCTAGCTTGGCCAAG (sugars k3 d10 k3, PS)	16%
TGCTAGTCCTCAGGAT (sugars k3 d10 k3, PS)	19%
TGCTCCCCGCCTGAGC (sugars k3 d10 k3, PS)	24%
TGCTTATTCCCCAATG (sugars k3 d10 k3, PS)	52%
TGCTTGGGAAATCTTA (sugars k3 d10 k3, PS)	23%
TGGAAACCAGGAGTGC (sugars k3 d10 k3, PS)	14%
TGGAATCCTGTCTGCT (sugars k3 d10 k3, PS)	17%
TGGAGATCAGCTTCCG (sugars k3 d10 k3, PS)	18%
TGGCAAAATGGCGGAC (sugars k3 d10 k3, PS)	19%
TGGCATCAAGGCACTG (sugars k3 d10 k3, PS)	49%
TGGTTTTAATACCCTT (sugars k3 d10 k3, PS)	11%
TGTATTAATCTCTATC (sugars k3 d10 k3, PS)	41%
TGTTAACAGCTGCCTG (sugars k3 d10 k3, PS)	39%
TTAAAAGATCGCCTTC (sugars k3 d10 k3, PS)	43%
TTAAAGTAGACCAACT (sugars k3 d10 k3, PS)	27%
TTAAAGTGTGATAGTT (sugars k3 d10 k3, PS)	6%
TTAAGAGCTGCTATAA (sugars k3 d10 k3, PS)	6%
TTAAGTTGGTAATTAC (sugars k3 d10 k3, PS)	-6%
TTAATCATACTCCAGT (sugars k3 d10 k3, PS)	19%

Sequence	target mRNA inhibition
TTACCCCAACTAAACA (sugars k3 d10 k3, PS)	-4%
TTACCTAAACCCACCC (sugars k3 d10 k3, PS)	38%
TTACGCAACTGAGCCC (sugars k3 d10 k3, PS)	11%
TTACTTGCCAACTTGG (sugars k3 d10 k3, PS)	70% and 68%
TTAGGATTCTAGACAG (sugars k3 d10 k3, PS)	43%
TTAGGTATGAGCTTCA (sugars k3 d10 k3, PS)	18%
TTAGTTGGCATCAAGG (sugars k3 d10 k3, PS)	74% and 70%
TTATACATCAAGGATG (sugars k3 d10 k3, PS)	4%
TTATAGACCCCTGACT (sugars k3 d10 k3, PS)	10%
TTATCCTGATATTGGA (sugars k3 d10 k3, PS)	-12%
TTATTAAGAGCTGCTA (sugars k3 d10 k3, PS)	27% and 44%
TTCAATCACAAATACG (sugars k3 d10 k3, PS)	19%
TTCACCAAATCGCACT (sugars k3 d10 k3, PS)	29%
TTCACCAAGGAGCTGT (sugars k3 d10 k3, PS)	37%
TTCAGACCTTCTGAAC (sugars k3 d10 k3, PS)	-8%
TTCCAGGATTAATGTA (sugars k3 d10 k3, PS)	37%
TTCCATTACGCAACTG (sugars k3 d10 k3, PS)	-21%
TTCCCATAATTGTAGT (sugars k3 d10 k3, PS)	18%
TTCGAGAAATCGGAGC (sugars k3 d10 k3, PS)	-11%
TTCGGATGCTTCACTC (sugars k3 d10 k3, PS)	48%
TTCGGCTTCTTTTATT (sugars k3 d10 k3, PS)	44%
TTCGGTTTAATCTCTT (sugars k3 d10 k3, PS)	94%
